Values of other authors, collected in patent publication US20210349074A1, “METHOD OF TESTING TEARS AS A BIOMARKER FOR CANNABINOIDS” (priority 2020, published 2021).

Details: during the first two hours after using cannabis

Structure (SMILES): CCCCCc1cc(O)c2c(c1)OC(C)(C)[C@@H]1CCC(C)=C[C@@H]21 [THC, Δ9-tetrahydrocannabinol]
- average drop of participants' THC blood levels: 5 ng/mL
